Assay results taken from US9765075B2, “Substituted bridged urea analogs as sirtuin modulators” (GLAXOSMITHKLINE LLC, priority 2013, dated 2017).
Read-outs that look alike come from different tables or passages of the source.

Target: T1, SIRT1 (Homo sapiens, UniProt Q96EB6)
T1 sequence (Q96EB6 1-747): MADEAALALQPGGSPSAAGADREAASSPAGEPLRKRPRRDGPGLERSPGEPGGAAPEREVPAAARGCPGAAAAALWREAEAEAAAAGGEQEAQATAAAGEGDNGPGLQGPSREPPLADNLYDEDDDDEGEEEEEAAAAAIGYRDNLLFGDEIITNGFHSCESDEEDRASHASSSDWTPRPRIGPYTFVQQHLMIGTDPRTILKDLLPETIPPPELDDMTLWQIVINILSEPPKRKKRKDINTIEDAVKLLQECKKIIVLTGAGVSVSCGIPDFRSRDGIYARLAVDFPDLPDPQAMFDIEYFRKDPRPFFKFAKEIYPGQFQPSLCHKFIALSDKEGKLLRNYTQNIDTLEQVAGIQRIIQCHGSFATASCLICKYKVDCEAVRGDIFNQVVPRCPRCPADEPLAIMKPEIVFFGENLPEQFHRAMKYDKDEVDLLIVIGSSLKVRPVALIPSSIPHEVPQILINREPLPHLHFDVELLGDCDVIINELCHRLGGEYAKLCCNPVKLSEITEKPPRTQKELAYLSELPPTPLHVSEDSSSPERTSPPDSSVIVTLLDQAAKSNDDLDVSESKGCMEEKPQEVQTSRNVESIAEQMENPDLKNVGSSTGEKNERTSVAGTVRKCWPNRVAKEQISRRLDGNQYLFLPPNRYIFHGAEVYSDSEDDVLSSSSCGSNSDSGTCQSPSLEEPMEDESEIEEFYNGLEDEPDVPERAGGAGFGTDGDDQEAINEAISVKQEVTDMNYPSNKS
Assay: Trp mass spectrometry assay (SIRT1 activation)
Type: biochemical
Conditions: for Emax: percent maximum fold activation of SIRT1, read-out: Tryp % Fold Act
Procedure, shortened: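 N-His-tagged SIRT1 (10 nM), expressed in E. coli, was incubated with 0.5 μM Ac-RHKK(Ac)W-NH2 peptide and 120 μM NAD+ for 25 min at 25 °C in HEPES pH 7.5 with […]. The reaction was stopped with formic acid and O-acetyl-ADP-ribose or deacetylated peptide was quantified by mass spectrometry. Results are given as EC1.5 and percent maximal activation relative to DMSO control.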

[1] = concentration of test compound that results in 150% activation of SIRT1, Trp peptide substrate
[2] = Trp mass spectrometry assay, EC1.5 = concentration of test compound that results in 150% activation of SIRT1
[3] = Trp mass spectrometry assay, EC1.5 = concentration giving 150% activation of SIRT1

| SMILES | Tryp AVG EC1.5 (μM) [1] | Emax (Trp peptide substrate) | Emax (Trp mass spectrometry assay) | Tryp AVG EC1.5 (μM) [2] | Tryp AVG EC1.5 (μM) [3] |
| --- | --- | --- | --- | --- | --- |
| Cc1cncc(-c2ccc3c(n2)N(C(=O)Nc2cnccn2)[C@H]2CCCN3C2)c1 [Example 512] | B (EC1.5 1-25 μM) | ≥ 150% |  |  |  |
| CC(C)(C)OC(=O)N1CCC(c2cccc(NC(=O)N3c4nc(-c5cccc(C(F)(F)F)c5)ccc4N4CC[C@H]3C4)c2)C1 (stereo partly shown) [Example 592] | A (EC1.5<1 μM) | ≥ 150% |  |  |  |
| O=C(Nc1cncc(F)c1)N1c2nc(-c3cccc(C(F)(F)F)c3)ccc2N2CCC[C@H]1C2 [Example 45] |  |  | ≥ 150% |  |  |
| O=C(Nc1cc(-c2cnco2)ccn1)N1c2nc(-c3cccc(C(F)(F)F)c3)ccc2N2CC[C@H]1C2 [Example 589] | A (EC1.5<1 μM) | ≥ 150% |  |  |  |
| COc1nccc(NC(=O)N2c3nc(-c4cccc(Cl)c4)ccc3N3CC[C@H]2C3)n1 [Example 50] |  |  | ≥ 150% |  |  |
| O=C(Nc1ccc(F)cn1)N1c2nc(-c3cccc(N4CC[C@H](F)C4)c3)ccc2N2CC[C@H]1C2 [Example 270] | B (EC1.5 1-25 μM) | ≥ 150% |  |  |  |
| Cc1cnc2c(NC(=O)N3c4nc(-c5cccc(C(F)(F)F)c5)ccc4N4CC[C@H]3C4)cccc2n1 [76 (8)] |  |  | ≥ 150% | A (EC1.5<1 μM) |  |
| COc1cc(NC(=O)N2c3nc(-c4cccc(Cl)c4)ccc3N3CCC2CC3)ncn1 [Example 522] | B (EC1.5 1-25 μM) | ≥ 150% |  |  |  |
| COc1nccc(NC(=O)N2c3nc(-c4cccc(OC(F)(F)F)c4)ccc3N3CC[C@H]2C3)n1 [Example 176] |  |  | ≥ 150% | A (EC1.5<1 μM) |  |
| Cc1nc(NC(=O)N2c3nc(-c4cccc(Cl)c4)ccc3N3CC[C@H]2C3)sc1C [Example 102] |  |  | ≥ 150% | A (EC1.5<1 μM) |  |
| O=C(Nc1cnccn1)N1c2nc(-c3cccnc3)ccc2N2CCC[C@H]1C2 [Example 454] | B (EC1.5 1-25 μM) | ≥ 150% |  |  |  |
| Cn1ncc2cc(NC(=O)N3c4nc(-c5cccc(C#N)c5)ccc4N4CC[C@H]3C4)ccc21 [Example 184] |  |  | ≥ 150% | A (EC1.5<1 μM) |  |
| Cc1nc(NC(=O)N2c3nc(N4CCCC(C(F)(F)F)C4)ccc3N3CCC[C@@H]2C3)sc1C (stereo partly shown) [Example 313] | C (EC1.5>25 μM) | < 150% |  |  |  |
| O=C(Nc1cncc(F)c1)N1c2nc(-c3cncc(C(F)(F)F)c3)ccc2N2CCC[C@H]1C2 [Example 411] | A (EC1.5<1 μM) | ≥ 150% |  |  |  |
| O=C(Nc1cccnn1)N1c2nc(-c3cncc(C(F)(F)F)c3)ccc2N2CCC[C@H]1C2 [Example 412] | A (EC1.5<1 μM) | ≥ 150% |  |  |  |
| CC(C)(C)OC(=O)NCc1cccc(-c2ccc3c(n2)N(C(=O)Nc2ccncc2)[C@H]2CCCN3C2)c1 [Example 795] |  |  | ≥ 150% |  | B (EC1.5 1-25 μM) |
| COc1cc(NC(=O)N2c3nc(-c4cncc(Cl)c4)ccc3N3CC[C@H]2C3)ncn1 [Example 250] | A (EC1.5<1 μM) | ≥ 150% |  |  |  |
| O=C(NCCCCn1ccnc1)N1c2nc(-c3cccc(C(F)(F)F)c3)ccc2N2CC[C@H]1C2 [Example 689] |  |  | ≥ 150% |  | B (EC1.5 1-25 μM) |
| O=C(Nc1ccccn1)N1c2nc(-c3cccc(N4CC[C@H](F)C4)c3)ccc2N2CC[C@H]1C2 [Example 280] | A (EC1.5<1 μM) | ≥ 150% |  |  |  |
| O=C(Nc1cccnn1)N1c2nc(-c3cccc(C(F)(F)F)c3)ccc2N2CC[C@H]1C2 [Example 11] |  |  | ≥ 150% |  |  |
| COc1cc(NC(=O)N2c3nc(-c4ccnc(N5CCC(C(F)(F)F)C5)c4)ccc3N3CC[C@H]2C3)ncn1 (stereo partly shown) [Example 368] | B (EC1.5 1-25 μM) | ≥ 150% |  |  |  |
| O=C(Nc1ccccn1)N1c2nc(-c3cccc(Cl)c3)ccc2N2CCC[C@H]1C2 [Example 387] | A (EC1.5<1 μM) | ≥ 150% |  |  |  |
| O=C(Nc1ccncn1)N1c2nc(-c3cccc(Cl)c3)ccc2N2C[C@@H](O)[C@H]1C2 [Example 684] |  |  | ≥ 150% |  | B (EC1.5 1-25 μM) |
| O=C(Nc1ccncn1)N1c2nc(-c3cccc(C(F)(F)F)c3)ccc2N2CC[C@H]1C2 [Example 12] |  |  | ≥ 150% |  |  |
| COc1nccc(NC(=O)N2c3nc(-c4cccc(C(F)(F)F)c4)ccc3N3CCC[C@H]2C3)n1 [Example 32] |  |  | ≥ 150% |  |  |

| SMILES | Tryp AVG EC1.5 (μM) [1] | Emax (Trp peptide substrate) | Emax (Trp mass spectrometry assay) | Tryp AVG EC1.5 (μM) [2] | Tryp AVG EC1.5 (μM) [3] |
| --- | --- | --- | --- | --- | --- |
| O=C(Nc1ccc(F)cn1)N1c2nc(-c3cccc(OC[C@@H](O)CO)c3)ccc2N2CC[C@H]1C2 [Example 146] |  |  | ≥ 150% | B (EC1.5 1-25 μM) |  |
| Cc1cc(-c2ccc3c(n2)N(C(=O)Nc2ccc4c(cnn4C)c2)[C@H]2CCN3C2)ccn1 [Example 502] | A (EC1.5<1 μM) | ≥ 150% |  |  |  |
| O=C(Nc1ccccn1)N1c2nc(-c3ccc(Cl)c(Cl)c3)ccc2N2CC[C@H]1C2 [Example 332] | A (EC1.5<1 μM) | ≥ 150% |  |  |  |
| O=C(Nc1ccccn1)N1c2nc(-c3cncc(F)c3)ccc2N2CC[C@H]1C2 [Example 374] | B (EC1.5 1-25 μM) | ≥ 150% |  |  |  |
| O=C(Nc1cccnc1)N1c2nc(-c3cccc(Cl)c3)ccc2N2CCC1CC2 [Example 496] | A (EC1.5<1 μM) | ≥ 150% |  |  |  |
| COc1cc(NC(=O)N2c3nc(-c4cccnc4)ccc3N3CCC[C@H]2C3)ncn1 [Example 442] | B (EC1.5 1-25 μM) | ≥ 150% |  |  |  |
| N#Cc1cccc(-c2ccc3c(n2)N(C(=O)Nc2cccnc2)[C@H]2CCN3C2)c1 [Example 180] |  |  | ≥ 150% | A (EC1.5<1 μM) |  |
| Cc1cc(C)nc(NC(=O)N2c3nc(N4CCCC(C(F)(F)F)C4)ccc3N3CC[C@H]2C3)c1 (stereo partly shown) [Example 213] |  |  | ≥ 150% | B (EC1.5 1-25 μM) |  |
| O=C(Nc1cccc(-c2cnco2)c1)N1c2nc(-c3cccc(C(F)(F)F)c3)ccc2N2CC[C@@H]1C2 [Example 233] | A (EC1.5<1 μM) | ≥ 150% |  |  |  |
| N#Cc1cccc(-c2ccc3c(n2)N(C(=O)Nc2cncc(F)c2)[C@H]2CCCN3C2)c1 [Example 353] | A (EC1.5<1 μM) | ≥ 150% |  |  |  |
| O=C(Nc1ccccn1)N1c2nc(-c3cccc(OC(F)(F)F)c3)ccc2N2CC[C@H]1C2 [Example 138] |  |  | ≥ 150% | A (EC1.5<1 μM) |  |
| N#Cc1cccc(-c2ccc3c(n2)N(C(=O)Nc2ccccn2)[C@H]2CCN3C2)c1 [Example 139] |  |  | ≥ 150% | A (EC1.5<1 μM) |  |
| CC(C)c1cccc(C(C)C)c1NC(=O)N1c2nc(-c3cccc(C(F)(F)F)c3)ccc2N2CC[C@H]1C2 [Example 67] |  |  | < 150% |  |  |
| O=C(Nc1ccccn1)N1c2nc(Cl)ccc2N2CC[C@H]1C2 [Example 258] | C (EC1.5>25 μM) | ≥ 150% |  |  |  |
| COc1cccc(-c2ccc3c(n2)N(C(=O)Nc2ccc(F)cn2)[C@@H]2CCN3C2)c1 [Example 205] |  |  | ≥ 150% | B (EC1.5 1-25 μM) |  |
| O=C(Nc1cccnn1)N1c2nc(-c3cccc(F)c3)ccc2N2CC[C@H]1C2 [Example 58] |  |  | ≥ 150% |  |  |
| Cc1cnccc1NC(=O)N1c2nc(C3CCCC(C(F)(F)F)C3)ccc2N2CC[C@H]1C2 (stereo partly shown) [Example 100] |  |  | ≥ 150% | B (EC1.5 1-25 μM) |  |
| Cc1ccc(-c2ccc3c(n2)N(C(=O)Nc2cnccn2)[C@H]2CCN3C2)cn1 [Example 236] | B (EC1.5 1-25 μM) | ≥ 150% |  |  |  |
| Cc1ccncc1-c1ccc2c(n1)N(C(=O)Nc1cccnn1)[C@H]1CCCN2C1 [Example 520] | C (EC1.5>25 μM) | ≥ 150% |  |  |  |
| O=C(Nc1ccnnc1)N1c2nc(-c3cccc(Cl)c3)ccc2N2CC[C@H]1C2 [Example 120] |  |  | ≥ 150% | A (EC1.5<1 μM) |  |
| O=C(Nc1cnccn1)N1c2nc(-c3cccc(Cl)c3)ccc2N2CCC1CC2 [Example 543] | B (EC1.5 1-25 μM) | ≥ 150% |  |  |  |
| O=C(Nc1cc(-c2cnco2)ccn1)N1c2nc(-c3cccc(Cl)c3)ccc2N2C[C@@H](O)[C@H]1C2 [Example 685] |  |  | ≥ 150% |  | B (EC1.5 1-25 μM) |
| CC(C)(C)OC(=O)NCCCc1cc(NC(=O)N2c3nc(-c4cccc(C(F)(F)F)c4)ccc3N3CCC[C@H]2C3)cc(-c2cnco2)c1 [Example 754] |  |  |  |  | A (EC1.5<1 μM) |
| O=C(Nc1cccnc1)N1c2nc(-c3cccc(Cl)c3)ccc2N2C[C@@H](O)[C@H]1C2 [Example 681] |  |  | ≥ 150% |  | B (EC1.5 1-25 μM) |
| Cn1cc(NC(=O)N2c3nc(-c4cccc(C(F)(F)F)c4)ccc3N3CCC[C@H]2C3)cn1 [Example 40] |  |  | ≥ 150% |  |  |
